Assay results taken from publication PMC8401933 (Molecules, 2021).

Columns and labels:
Assay in all cases: KINOMEscan binding
CDK4-cyclinD3 = biological target: T1, CDK4-cyclinD3 (Homo sapiens, UniProt P11802); settings: read-out: Percent Control
T1 construct: purchased Eurofins DiscoverX KINOMEscan

TRKA = biological target: T2, TRKA (Homo sapiens, UniProt P04629); settings: read-out: Percent Control
T2 construct: purchased Eurofins DiscoverX KINOMEscan

[1] = biological target: T3, RSK3(Kin.Dom.2-C-terminal) (Homo sapiens, UniProt Q15349); settings: read-out: Percent Control
T3 construct: RSK3(Kin.Dom.2-C-terminal); purchased Eurofins DiscoverX KINOMEscan

SIK = biological target: T4, SIK (Homo sapiens, UniProt P57059); settings: read-out: Percent Control
T4 construct: purchased Eurofins DiscoverX KINOMEscan

BMPR1B = biological target: T5, BMPR1B (Homo sapiens, UniProt O00238); settings: read-out: Percent Control
T5 construct: purchased Eurofins DiscoverX KINOMEscan

TNIK = biological target: T6, TNIK (Homo sapiens, UniProt Q9UKE5); settings: read-out: Percent Control
T6 construct: purchased Eurofins DiscoverX KINOMEscan

ACVRL1 = biological target: T7, ACVRL1 (Homo sapiens, UniProt P37023); settings: read-out: Percent Control
T7 construct: purchased Eurofins DiscoverX KINOMEscan

LRRK2(G2019S) = biological target: T8, LRRK2(G2019S) (Homo sapiens, UniProt Q5S007, G2019S); settings: read-out: Percent Control
T8 construct: purchased Eurofins DiscoverX KINOMEscan

BRAF(V600E) = biological target: T9, BRAF(V600E) (Homo sapiens, UniProt P15056, V600E); settings: read-out: Percent Control
T9 construct: purchased Eurofins DiscoverX KINOMEscan

PKN2 = biological target: T10, PKN2 (Homo sapiens, UniProt Q16513); settings: read-out: Percent Control
T10 construct: purchased Eurofins DiscoverX KINOMEscan

DCAMKL2 = biological target: T11, DCAMKL2 (Homo sapiens, UniProt Q8N568); settings: read-out: Percent Control
T11 construct: purchased Eurofins DiscoverX KINOMEscan

TESK1 = biological target: T12, TESK1 (Homo sapiens, UniProt Q15569); settings: read-out: Percent Control
T12 construct: purchased Eurofins DiscoverX KINOMEscan

CAMK1B = biological target: T13, CAMK1B (Homo sapiens, UniProt Q6P2M8); settings: read-out: Percent Control
T13 construct: purchased Eurofins DiscoverX KINOMEscan

MAST1 = biological target: T14, MAST1 (Homo sapiens, UniProt Q9Y2H9); settings: read-out: Percent Control
T14 construct: purchased Eurofins DiscoverX KINOMEscan

ERK5 = biological target: T15, ERK5 (Homo sapiens, UniProt Q13164); settings: read-out: Percent Control
T15 construct: purchased Eurofins DiscoverX KINOMEscan

LIMK2 = biological target: T16, LIMK2 (Homo sapiens, UniProt P53671); settings: read-out: Percent Control
T16 construct: purchased Eurofins DiscoverX KINOMEscan

EPHA6 = biological target: T17, EPHA6 (Homo sapiens, UniProt Q9UF33); settings: read-out: Percent Control
T17 construct: purchased Eurofins DiscoverX KINOMEscan

PAK7 = biological target: T18, PAK7 (Homo sapiens, UniProt Q9P286); settings: read-out: Percent Control
T18 construct: purchased Eurofins DiscoverX KINOMEscan

ROCK1 = biological target: T19, ROCK1 (Homo sapiens, UniProt Q13464)
T19 construct: purchased Eurofins DiscoverX KINOMEscan

MYO3B = biological target: T20, MYO3B (Homo sapiens, UniProt Q8WXR4); settings: read-out: Percent Control
T20 construct: purchased Eurofins DiscoverX KINOMEscan

CSF1R-autoinhibited = biological target: T21, CSF1R-autoinhibited (Homo sapiens, UniProt P07333); settings: read-out: Percent Control
T21 construct: purchased Eurofins DiscoverX KINOMEscan

ERK1 = biological target: T22, ERK1 (Homo sapiens, UniProt P27361); settings: read-out: Percent Control
T22 construct: purchased Eurofins DiscoverX KINOMEscan

CHEK2 = biological target: T23, CHEK2 (Homo sapiens, UniProt O96017); settings: read-out: Percent Control
T23 construct: purchased Eurofins DiscoverX KINOMEscan

PIK3CA(E545K) = biological target: T24, PIK3CA(E545K) (Homo sapiens, UniProt P42336, E545K); settings: read-out: Percent Control
T24 construct: purchased Eurofins DiscoverX KINOMEscan

MKNK2 = biological target: T25, MKNK2 (Homo sapiens, UniProt Q9HBH9); settings: read-out: Percent Control
T25 construct: purchased Eurofins DiscoverX KINOMEscan

MLK3 = biological target: T26, MLK3 (Homo sapiens, UniProt Q16584); settings: read-out: Percent Control
T26 construct: purchased Eurofins DiscoverX KINOMEscan

CDKL5 = biological target: T27, CDKL5 (Homo sapiens, UniProt O76039); settings: read-out: Percent Control
T27 construct: purchased Eurofins DiscoverX KINOMEscan

MAPKAPK2 = biological target: T28, MAPKAPK2 (Homo sapiens, UniProt P49137); settings: read-out: Percent Control
T28 construct: purchased Eurofins DiscoverX KINOMEscan

DAPK2 = biological target: T29, DAPK2 (Homo sapiens, UniProt Q9UIK4); settings: read-out: Percent Control
T29 construct: purchased Eurofins DiscoverX KINOMEscan

EPHA7 = biological target: T30, EPHA7 (Homo sapiens, UniProt Q15375); settings: read-out: Percent Control
T30 construct: purchased Eurofins DiscoverX KINOMEscan

NEK6 = biological target: T31, NEK6 (Homo sapiens, UniProt Q9HC98); settings: read-out: Percent Control
T31 construct: purchased Eurofins DiscoverX KINOMEscan

PIM1 = biological target: T32, PIM1 (Homo sapiens, UniProt P11309); settings: read-out: Percent Control
T32 construct: purchased Eurofins DiscoverX KINOMEscan

RIPK2 = biological target: T33, RIPK2 (Homo sapiens, UniProt O43353); settings: read-out: Percent Control
T33 construct: purchased Eurofins DiscoverX KINOMEscan

PRKD3 = biological target: T34, PRKD3 (Homo sapiens, UniProt O94806); settings: read-out: Percent Control
T34 construct: purchased Eurofins DiscoverX KINOMEscan

EPHB6 = biological target: T35, EPHB6 (Homo sapiens, UniProt O15197); settings: read-out: Percent Control
T35 construct: purchased Eurofins DiscoverX KINOMEscan

STK33 = biological target: T36, STK33 (Homo sapiens, UniProt Q9BYT3); settings: read-out: Percent Control
T36 construct: purchased Eurofins DiscoverX KINOMEscan

TBK1 = biological target: T37, TBK1 (Homo sapiens, UniProt Q9UHD2); settings: read-out: Percent Control
T37 construct: purchased Eurofins DiscoverX KINOMEscan

[2] = biological target: T38, ABL1(F317L)-phosphorylated (Homo sapiens, UniProt P00519, F317L); settings: read-out: Percent Control
T38 construct: purchased Eurofins DiscoverX KINOMEscan

ALK(C1156Y) = biological target: T39, ALK(C1156Y) (Homo sapiens, UniProt Q9UM73, C1156Y); settings: read-out: Percent Control
T39 construct: purchased Eurofins DiscoverX KINOMEscan

ERN1 = biological target: T40, ERN1 (Homo sapiens, UniProt O75460); settings: read-out: Percent Control
T40 construct: purchased Eurofins DiscoverX KINOMEscan

AURKB = biological target: T41, AURKB (Homo sapiens, UniProt Q96GD4); settings: read-out: Percent Control
T41 construct: purchased Eurofins DiscoverX KINOMEscan

BRAF = biological target: T42, BRAF (Homo sapiens, UniProt P15056); settings: read-out: Percent Control
T42 construct: purchased Eurofins DiscoverX KINOMEscan

[3] = biological target: T43, RPS6KA5(Kin.Dom.2-C-terminal) (Homo sapiens, UniProt O75582); settings: read-out: Percent Control
T43 construct: RPS6KA5(Kin.Dom.2-C-terminal); purchased Eurofins DiscoverX KINOMEscan

T19 sequence (Q13464 whole entry): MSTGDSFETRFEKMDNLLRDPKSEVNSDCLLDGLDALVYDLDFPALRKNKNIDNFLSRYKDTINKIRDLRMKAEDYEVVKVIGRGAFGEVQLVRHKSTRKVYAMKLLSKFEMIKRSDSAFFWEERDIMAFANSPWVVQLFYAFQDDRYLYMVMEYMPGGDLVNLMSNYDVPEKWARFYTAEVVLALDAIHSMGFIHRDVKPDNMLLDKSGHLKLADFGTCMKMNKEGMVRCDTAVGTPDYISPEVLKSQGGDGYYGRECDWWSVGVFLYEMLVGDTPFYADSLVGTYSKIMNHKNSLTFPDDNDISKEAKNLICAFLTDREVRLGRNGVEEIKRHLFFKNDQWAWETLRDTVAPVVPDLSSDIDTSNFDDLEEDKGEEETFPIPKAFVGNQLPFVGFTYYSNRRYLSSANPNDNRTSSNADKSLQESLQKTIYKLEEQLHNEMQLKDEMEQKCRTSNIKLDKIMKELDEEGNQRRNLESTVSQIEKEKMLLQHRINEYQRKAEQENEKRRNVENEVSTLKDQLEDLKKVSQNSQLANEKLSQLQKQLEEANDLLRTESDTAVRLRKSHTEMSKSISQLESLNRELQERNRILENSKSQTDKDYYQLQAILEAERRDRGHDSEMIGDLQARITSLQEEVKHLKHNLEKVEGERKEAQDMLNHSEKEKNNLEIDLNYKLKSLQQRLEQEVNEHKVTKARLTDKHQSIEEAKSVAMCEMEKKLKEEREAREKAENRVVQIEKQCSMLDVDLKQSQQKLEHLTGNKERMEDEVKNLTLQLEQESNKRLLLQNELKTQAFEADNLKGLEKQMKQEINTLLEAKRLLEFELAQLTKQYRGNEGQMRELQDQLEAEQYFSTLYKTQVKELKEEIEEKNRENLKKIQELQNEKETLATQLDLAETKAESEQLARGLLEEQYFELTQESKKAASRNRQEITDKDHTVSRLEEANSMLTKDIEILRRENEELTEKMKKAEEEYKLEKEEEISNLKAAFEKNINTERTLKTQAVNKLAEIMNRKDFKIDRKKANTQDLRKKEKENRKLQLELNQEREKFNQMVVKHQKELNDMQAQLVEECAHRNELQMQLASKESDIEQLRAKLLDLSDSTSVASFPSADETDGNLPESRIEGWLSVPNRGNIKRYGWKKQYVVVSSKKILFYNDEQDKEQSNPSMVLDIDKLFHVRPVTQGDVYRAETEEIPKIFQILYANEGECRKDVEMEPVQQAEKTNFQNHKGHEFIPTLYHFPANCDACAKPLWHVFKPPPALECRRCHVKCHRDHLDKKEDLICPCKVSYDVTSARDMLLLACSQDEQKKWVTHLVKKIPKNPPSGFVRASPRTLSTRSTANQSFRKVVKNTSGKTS
T7 sequence (P37023 22-503): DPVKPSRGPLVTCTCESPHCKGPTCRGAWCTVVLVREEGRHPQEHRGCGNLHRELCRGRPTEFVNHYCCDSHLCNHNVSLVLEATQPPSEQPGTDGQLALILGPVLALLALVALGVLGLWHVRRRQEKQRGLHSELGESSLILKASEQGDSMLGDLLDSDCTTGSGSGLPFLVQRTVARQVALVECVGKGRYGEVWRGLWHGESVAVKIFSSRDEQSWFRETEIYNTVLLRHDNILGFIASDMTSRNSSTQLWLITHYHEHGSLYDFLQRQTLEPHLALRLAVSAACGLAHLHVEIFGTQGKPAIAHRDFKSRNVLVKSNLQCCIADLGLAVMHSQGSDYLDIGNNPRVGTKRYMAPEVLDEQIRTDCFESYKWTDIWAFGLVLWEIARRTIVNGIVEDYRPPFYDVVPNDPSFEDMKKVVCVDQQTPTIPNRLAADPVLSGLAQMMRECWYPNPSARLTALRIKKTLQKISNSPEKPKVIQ
T34 sequence (O94806 whole entry): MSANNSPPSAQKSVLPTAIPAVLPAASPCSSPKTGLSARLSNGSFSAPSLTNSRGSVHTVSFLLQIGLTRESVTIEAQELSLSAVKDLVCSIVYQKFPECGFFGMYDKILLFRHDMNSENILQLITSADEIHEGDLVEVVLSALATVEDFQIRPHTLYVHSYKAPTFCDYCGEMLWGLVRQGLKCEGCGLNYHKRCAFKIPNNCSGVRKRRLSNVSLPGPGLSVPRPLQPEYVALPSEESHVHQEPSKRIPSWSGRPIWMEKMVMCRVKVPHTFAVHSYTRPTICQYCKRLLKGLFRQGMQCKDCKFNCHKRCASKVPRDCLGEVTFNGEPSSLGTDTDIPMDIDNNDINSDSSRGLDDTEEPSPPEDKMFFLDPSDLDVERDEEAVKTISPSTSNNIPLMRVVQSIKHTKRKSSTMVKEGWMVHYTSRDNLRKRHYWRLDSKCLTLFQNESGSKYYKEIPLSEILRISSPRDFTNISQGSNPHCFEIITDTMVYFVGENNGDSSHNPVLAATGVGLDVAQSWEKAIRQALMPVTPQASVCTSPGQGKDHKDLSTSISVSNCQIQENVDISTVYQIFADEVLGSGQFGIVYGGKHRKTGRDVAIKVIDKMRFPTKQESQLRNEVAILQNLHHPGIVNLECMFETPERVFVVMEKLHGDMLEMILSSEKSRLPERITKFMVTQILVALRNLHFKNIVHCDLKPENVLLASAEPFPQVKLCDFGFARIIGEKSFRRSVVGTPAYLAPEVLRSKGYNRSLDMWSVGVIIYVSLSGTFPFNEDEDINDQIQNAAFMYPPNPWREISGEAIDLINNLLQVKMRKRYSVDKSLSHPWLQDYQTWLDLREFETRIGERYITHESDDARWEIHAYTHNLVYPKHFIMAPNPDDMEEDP
T5 sequence (O00238 14-502): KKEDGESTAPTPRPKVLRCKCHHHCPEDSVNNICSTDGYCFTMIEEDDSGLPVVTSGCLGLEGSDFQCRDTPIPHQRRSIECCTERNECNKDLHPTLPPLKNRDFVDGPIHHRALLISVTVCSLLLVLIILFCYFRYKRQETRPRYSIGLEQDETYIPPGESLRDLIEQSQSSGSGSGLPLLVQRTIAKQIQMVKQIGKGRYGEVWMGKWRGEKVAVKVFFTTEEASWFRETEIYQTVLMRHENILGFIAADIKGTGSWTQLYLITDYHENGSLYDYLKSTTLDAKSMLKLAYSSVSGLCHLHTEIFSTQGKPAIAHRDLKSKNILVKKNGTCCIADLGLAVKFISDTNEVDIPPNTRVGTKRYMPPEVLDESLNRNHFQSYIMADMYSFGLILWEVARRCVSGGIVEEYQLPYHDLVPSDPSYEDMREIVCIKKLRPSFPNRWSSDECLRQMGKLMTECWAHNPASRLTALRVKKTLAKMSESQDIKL
T29 sequence (Q9UIK4 whole entry): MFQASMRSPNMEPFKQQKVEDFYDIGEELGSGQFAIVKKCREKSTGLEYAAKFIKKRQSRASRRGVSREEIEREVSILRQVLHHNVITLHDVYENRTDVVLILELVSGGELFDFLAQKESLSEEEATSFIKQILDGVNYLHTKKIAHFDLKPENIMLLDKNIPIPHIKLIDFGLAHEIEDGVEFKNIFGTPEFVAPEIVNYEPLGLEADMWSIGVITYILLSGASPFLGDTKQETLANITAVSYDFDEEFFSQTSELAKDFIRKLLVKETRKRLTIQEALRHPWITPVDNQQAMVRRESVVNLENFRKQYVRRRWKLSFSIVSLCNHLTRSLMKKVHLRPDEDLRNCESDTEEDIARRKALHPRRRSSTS
T10 sequence (Q16513 whole entry): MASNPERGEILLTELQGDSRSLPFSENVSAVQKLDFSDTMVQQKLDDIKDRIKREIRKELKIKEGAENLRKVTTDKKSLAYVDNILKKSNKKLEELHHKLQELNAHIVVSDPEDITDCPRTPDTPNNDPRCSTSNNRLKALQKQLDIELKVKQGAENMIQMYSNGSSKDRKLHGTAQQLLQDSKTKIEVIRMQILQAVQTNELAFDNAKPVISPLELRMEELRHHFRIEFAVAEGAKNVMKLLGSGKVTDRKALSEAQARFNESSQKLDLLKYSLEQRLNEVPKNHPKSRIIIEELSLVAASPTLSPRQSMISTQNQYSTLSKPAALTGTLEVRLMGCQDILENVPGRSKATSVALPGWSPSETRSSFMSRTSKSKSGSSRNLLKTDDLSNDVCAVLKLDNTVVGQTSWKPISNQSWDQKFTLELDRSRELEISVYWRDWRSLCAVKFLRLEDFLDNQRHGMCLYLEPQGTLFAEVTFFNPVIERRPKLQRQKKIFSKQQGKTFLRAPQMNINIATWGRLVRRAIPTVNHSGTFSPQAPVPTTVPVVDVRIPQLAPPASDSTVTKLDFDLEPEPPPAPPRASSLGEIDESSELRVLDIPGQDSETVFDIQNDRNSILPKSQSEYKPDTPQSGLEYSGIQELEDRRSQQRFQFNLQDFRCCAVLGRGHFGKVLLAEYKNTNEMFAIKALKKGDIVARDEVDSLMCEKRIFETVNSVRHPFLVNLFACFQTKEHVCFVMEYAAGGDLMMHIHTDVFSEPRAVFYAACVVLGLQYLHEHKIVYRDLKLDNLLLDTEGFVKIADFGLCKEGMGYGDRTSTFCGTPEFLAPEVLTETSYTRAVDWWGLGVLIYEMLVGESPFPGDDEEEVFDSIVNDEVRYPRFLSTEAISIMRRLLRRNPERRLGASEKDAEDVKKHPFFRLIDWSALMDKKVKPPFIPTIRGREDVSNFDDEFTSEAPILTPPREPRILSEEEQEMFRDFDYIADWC
T32 sequence (P11309 whole entry): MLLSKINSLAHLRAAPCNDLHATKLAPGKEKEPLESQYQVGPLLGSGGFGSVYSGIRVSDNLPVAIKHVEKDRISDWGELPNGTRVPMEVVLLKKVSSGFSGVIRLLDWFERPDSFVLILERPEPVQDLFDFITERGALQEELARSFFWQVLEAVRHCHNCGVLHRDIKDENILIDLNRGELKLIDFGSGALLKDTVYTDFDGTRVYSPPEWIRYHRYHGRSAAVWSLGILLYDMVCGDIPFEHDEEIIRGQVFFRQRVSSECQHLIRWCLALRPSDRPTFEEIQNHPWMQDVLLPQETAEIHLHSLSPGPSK

Structure (SMILES): CC(C)NC(=O)COc1cccc(-c2nc(Nc3ccc4[nH]ncc4c3)c3ccccc3n2)c1 [KD025, 2-(3-(4-((1H-indazol-5-yl)amino)quinazolin-2-yl)phenoxy)-N-isopropylacetamide]
- remaining binding at 10 µM (CDK4-cyclinD3): 53%
- remaining binding at 10 µM (TRKA): 61%
- remaining binding at 10 µM [1]: 89%
- remaining binding at 10 µM (SIK): 72%
- remaining binding at 10 µM (BMPR1B): 76%
- remaining binding at 10 µM (TNIK): 100%
- remaining binding at 10 µM (ACVRL1): 76%
- remaining binding at 10 µM (LRRK2(G2019S)): 99%
- remaining binding at 10 µM (BRAF(V600E)): 91%
- remaining binding at 10 µM (PKN2): 84%
- remaining binding at 10 µM (DCAMKL2): 79%
- remaining binding at 10 µM (TESK1): 73%
- remaining binding at 10 µM (CAMK1B): 97%
- remaining binding at 10 µM (MAST1): 100%
- remaining binding at 10 µM (ERK5): 100%
- remaining binding at 10 µM (LIMK2): 73%
- remaining binding at 10 µM (EPHA6): 90%
- remaining binding at 10 µM (PAK7): 100%
- ROCK1 vs. ROCK2 in POC (ROCK1; 10 μM): 900 fold
- remaining binding at 10 µM (ROCK1; ROCK1, read-out: Percent Control): 45%
- remaining binding at 10 µM (MYO3B): 100%
- remaining binding at 10 µM (CSF1R-autoinhibited): 91%
- remaining binding at 10 µM (ERK1): 63%
- remaining binding at 10 µM (CHEK2): 99%
- remaining binding at 10 µM (PIK3CA(E545K)): 94%
- remaining binding at 10 µM (MKNK2): 68%
- remaining binding at 10 µM (MLK3): 83%
- remaining binding at 10 µM (CDKL5): 100%
- remaining binding at 10 µM (MAPKAPK2): 100%
- remaining binding at 10 µM (DAPK2): 100%
- remaining binding at 10 µM (EPHA7): 100%
- remaining binding at 10 µM (NEK6): 80%
- remaining binding at 10 µM (PIM1): 100%
- remaining binding at 10 µM (RIPK2): 92%
- remaining binding at 10 µM (PRKD3): 100%
- remaining binding at 10 µM (EPHB6): 67%
- remaining binding at 10 µM (STK33): 67%
- remaining binding at 10 µM (TBK1): 66%
- remaining binding at 10 µM [2]: 98%
- remaining binding at 10 µM (ALK(C1156Y)): 65%
- remaining binding at 10 µM (ERN1): 98%
- remaining binding at 10 µM (AURKB): 61%
- remaining binding at 10 µM (BRAF): 85%
- remaining binding at 10 µM [3]: 86%
